Here are results for 8 compounds from US5849695A, “Parathyroid hormone analogues useful for treatment of osteoporosis and disorders of calcium meatabolism in mammals” (The Regents of the University of California, priority 1993, dated 1998).

Where two headings read alike, the source gives them in different places.

Data set [1] addresses T1, PTH receptor (Canis lupus familiaris, UniProt Q9TU31).
T1 construct: canine renal plasma membranes; from tissue; host or cells: canine kidney (renal plasma membranes)
T1 sequence (Q9TU31 29-595): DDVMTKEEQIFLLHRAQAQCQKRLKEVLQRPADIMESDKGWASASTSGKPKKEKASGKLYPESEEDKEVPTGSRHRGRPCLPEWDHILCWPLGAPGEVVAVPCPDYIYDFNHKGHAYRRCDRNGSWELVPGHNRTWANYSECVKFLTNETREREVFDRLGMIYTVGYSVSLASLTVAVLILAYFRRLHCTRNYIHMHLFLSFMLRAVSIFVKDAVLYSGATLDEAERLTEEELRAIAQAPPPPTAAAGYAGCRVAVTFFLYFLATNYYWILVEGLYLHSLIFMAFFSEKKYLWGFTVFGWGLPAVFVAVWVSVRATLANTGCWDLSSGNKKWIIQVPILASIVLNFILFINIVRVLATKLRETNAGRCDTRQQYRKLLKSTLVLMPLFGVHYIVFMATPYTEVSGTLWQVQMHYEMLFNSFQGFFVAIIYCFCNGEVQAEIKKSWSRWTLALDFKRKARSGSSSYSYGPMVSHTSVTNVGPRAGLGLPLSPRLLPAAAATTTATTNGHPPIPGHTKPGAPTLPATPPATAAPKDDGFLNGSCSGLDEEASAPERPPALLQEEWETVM
In kind it is binding, canine. The method, then:
(§1) Receptor binding assays were carried out in canine renal plasma membranes and in UMR 106-H5 rat osteosarcoma cells as previously described in detail (Ref. 14,32), using ^125 I-labeled PTH(1-34)amide as the radioligand. Binding potency (IC50) was quantified as the concentration of unlabeled peptide required for half-maximal displacement of the radioligand. […] Adenylate cyclase activity was assessed in canine renal membranes by the conversion of [α-32p ] ATP to [^32 P] cyclic AMP, essentially as described, except for the addition of 100 micromolar GTP (Ref. 33,34). Adenylate cyclase activity in UMR 106-H5 cells was assessed essentially as described (Ref. 35). In brief, cells were incubated with [3H]adenine 1 micro Ci/ml of serum-free MEM for two hours at 37° C. to label the endogenous ATP pool. Cells were then exposed to 0.4 mM IBMX for 10 min, followed by the appropriate peptide for an additional 10 min at ambient temperature. The cells are then scraped in 20% TCA, and [3H]cyclic AMP is isolated by the column procedure of Salomon et al. (Ref. 36). Potency in the adenylate cyclase assays (Ka) is the concentration of peptide producing half-maximal enzyme activation.

Data set [2] has as its target T2, PTH receptor (Rattus norvegicus, UniProt P25961).
T2 construct: endogenous in cells; host or cells: UMR 106-H5 rat osteosarcoma cells
T2 sequence (P25961 27-591): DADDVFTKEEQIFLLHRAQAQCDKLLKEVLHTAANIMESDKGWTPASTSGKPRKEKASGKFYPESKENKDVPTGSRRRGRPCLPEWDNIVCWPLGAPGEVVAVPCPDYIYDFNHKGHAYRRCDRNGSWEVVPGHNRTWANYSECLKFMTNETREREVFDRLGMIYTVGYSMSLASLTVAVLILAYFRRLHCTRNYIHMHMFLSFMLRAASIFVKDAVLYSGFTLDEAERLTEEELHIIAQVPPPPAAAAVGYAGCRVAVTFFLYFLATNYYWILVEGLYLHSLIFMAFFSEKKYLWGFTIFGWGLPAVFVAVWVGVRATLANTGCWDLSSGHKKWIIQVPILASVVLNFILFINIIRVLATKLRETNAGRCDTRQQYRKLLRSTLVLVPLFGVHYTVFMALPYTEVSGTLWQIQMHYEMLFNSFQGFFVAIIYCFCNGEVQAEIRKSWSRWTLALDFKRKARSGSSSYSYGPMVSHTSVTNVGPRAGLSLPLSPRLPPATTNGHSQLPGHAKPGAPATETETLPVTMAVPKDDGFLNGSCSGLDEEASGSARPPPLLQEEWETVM
In kind it is binding. The method, then: as §1

Data set [3] has as its target T2, PTH receptor. In kind it is cell-based. Conditions: for UMR106-H5 CELLS Rat Bone Activity (AC*): maximally effective dose. The method, then:
as §1, with “Assays were conducted using […] cells. These assays were performed as described in Cohen et al. (1991), J. Biological Chem., 266(3), 1997 and in the Experimental section, e.g. Example 11. Receptor” for “Receptor”

For data set [4], the target named is T1, PTH receptor. In kind it is biochemical, canine. Conditions: for RENAL MEMBRANES Canine Activity (AC*): maximally effective dose; for antagonism of PTH-stimulated adenylate cyclase: canine renal plasma membranes and UMR 106-H5 cells (FIG. 8). The method, then: as §1
Data set [5] deals with T3, PTH receptor (Homo sapiens, UniProt Q03431).
T3 sequence (Q03431 27-593): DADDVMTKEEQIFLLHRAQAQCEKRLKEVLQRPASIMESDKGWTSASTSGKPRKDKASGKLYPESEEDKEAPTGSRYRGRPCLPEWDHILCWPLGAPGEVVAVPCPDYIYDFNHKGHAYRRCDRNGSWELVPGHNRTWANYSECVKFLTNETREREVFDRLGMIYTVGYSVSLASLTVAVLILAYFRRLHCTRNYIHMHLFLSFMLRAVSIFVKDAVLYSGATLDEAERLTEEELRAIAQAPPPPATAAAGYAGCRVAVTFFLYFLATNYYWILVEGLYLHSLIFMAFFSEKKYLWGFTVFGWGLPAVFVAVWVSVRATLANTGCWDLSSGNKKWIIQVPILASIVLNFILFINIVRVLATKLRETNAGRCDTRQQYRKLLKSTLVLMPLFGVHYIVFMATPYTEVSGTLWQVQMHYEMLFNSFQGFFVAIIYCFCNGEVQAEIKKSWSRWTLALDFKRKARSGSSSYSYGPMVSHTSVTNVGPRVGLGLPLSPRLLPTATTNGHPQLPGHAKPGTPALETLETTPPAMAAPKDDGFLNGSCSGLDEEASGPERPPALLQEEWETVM
Type of data set: cell-based. Also on record: In intact rat (UMR-106) and human (SaOS-2) bone cell lines; endogenous in cells; host or cells: SaOS-2 human bone (osteosarcoma) cells. An excerpt:
The renal membrane assay values listed reflect the effect of the polypeptide analogue with kidney tissue receptors. The UMR-106-H5 assay values reflect the effect of the peptide analogue with rat bone tissue receptors. The Sa05-2 assay values reflect the effect of the peptides for human bone tissue receptors.

Data set [6] is described as follows: Circular dichroism: alpha-helical content. Type of data set: physicochemical. The following applies: for % HELIX TFE (30%) / % HELIX TFE (0%): Table 1, CD; for % HELIX TFE (30%): 30% trifluoroethanol; for % HELIX TFE (0%): absence of trifluoroethanol. The method, then: Far ultraviolet circular dichroism (CD) spectra were obtained in phosphate buffer (ph 7.0) at 25±1° C. in a 1.0 mm cell on an Instruments SA Jobin Yvon circular dichrograph calibrated with (+) 10-camphorsulfonic acid and epiandosterone. Peptides were analyzed at concentrations ranging from 0.1-0.3 mg/ml. The mean molar ellipticity per residue at 222 nm ([⊖]222 nm-, deg cm^2 /dmol) was used to derive estimates of alpha-helicity according to the method of Taylor and Kaiser (ref. 29).
For orientation: Circular dichroism is the unequal absorption of left and right circularly polarised light.

Setting [7] is: Table 1, relative to bPTH(1-34) = 100%.
Setting [8] is: Table 1, half-maximal enzyme activation, relative to bPTH(1-34) = 100%.

For `CC[C@H](C)[C@H](NC(=O)[C@H](CCC(=O)O)NC(=O)[C@H](CO)NC(=O)[C@@H](NC(=O)[C@H](C)N)C(C)C)C(=O)N[C@@H](CCC(N)=O)C(=O)N[C@@H](Cc1ccccc1)C(=O)N[C@@H](CCSC)C(=O)N[C@@H](Cc1c[nH]cn1)C(=O)N[C@@H](CC(N)=O)C(=O)N[C@@H](CC(C)C)C(=O)NCC(=O)N[C@@H](CCCCN)C(=O)N[C@@H](Cc1c[nH]cn1)C(=O)N[C@@H](CC(C)C)C(=O)N[C@@H](CO)C(=O)N[C@@H](CO)C(=O)N[C@@H](CCSC)C(=O)N[C@@H](CCC(=O)O)C(=O)N[C@@H](CCCNC(=N)N)C(=O)N[C@H](C(=O)N[C@@H](CCC(=O)O)C(=O)N[C@@H](Cc1c[nH]c2ccccc12)C(=O)N[C@@H](CC(C)C)C(=O)N[C@@H](CCCNC(=N)N)C(=O)N[C@@H](CCCCN)C(=O)N[C@@H](CCCCN)C(=O)N[C@@H](CC(C)C)C(=O)N[C@@H](CCC(N)=O)C(=O)N[C@@H](CC(=O)O)C(=O)N[C@H](C(=O)N[C@@H](Cc1c[nH]cn1)C(=O)N[C@@H](CC(N)=O)C(=O)N[C@@H](Cc1ccccc1)C(=O)O)C(C)C)C(C)C` [bPTH (1-34), bPTH(1-34), reference compound], the “RENAL MEMBRANES Canine Potency (B)” value at PTH receptor [1] stood at 100%. The “UMR106-H5 CELLS Rat Bone Potency (B)” value at PTH receptor [2] is 100%. The “UMR106-H5 CELLS Rat Bone Potency (AC)” value at PTH receptor [3] is 100%. Moreover, at PTH receptor [3] (setting [7]), the “UMR106-H5 CELLS Rat Bone Activity (AC*)” value is on record as 100%. At PTH receptor [4], the “RENAL MEMBRANES Canine Potency (AC)” value was 100%. Moreover, the “RENAL MEMBRANES Canine Activity (AC*)” value at PTH receptor [4] (setting [7]) is on record as 100%.

[Ala^6 ]bPTH(1-34): the “potency in human bone cells versus renal membranes” value on PTH receptor [5] (human bone cells and renal membranes) was “equipotent”.

In the case of [Glu^3 ]bPTH(1-34), at PTH receptor [1] (relative to bPTH(1-34), similar in the kidney and bone systems), the “retention of binding potency / receptor binding activity” value is given as “less than 0.1%”. Further, the calculated alpha-helical content in data set [6] (aqueous solvent conditions) is 19%.

With [His^3 ]bPTH(1-34), at PTH receptor [1] (setting [7]), the “RENAL MEMBRANES Canine Potency (B)” value amounted to 55%. For the same compound, the “UMR106-H5 CELLS Rat Bone Potency (B)” value at PTH receptor [2] (setting [7]) was 9%. Moreover, in data set [6], the “% HELIX TFE (30%)” value is listed as 84% and the “% HELIX TFE (0%)” value is 35%. Also, at PTH receptor [3] (setting [7]), the “UMR106-H5 CELLS Rat Bone Activity (AC*)” value is given as 100% and the “UMR106-H5 CELLS Rat Bone Potency (AC)” value is given as 75%. Further, the “potency for adenylate cyclase activation compared with renal adenylate cyclase” value at PTH receptor [3] (UMR-106-H5 cells) is reported as “increased potency”. Moreover, on PTH receptor [4] (setting [8]), the “RENAL MEMBRANES Canine Potency (AC)” value was found to be 2.5%. In addition, at PTH receptor [4] (setting [7]), the “RENAL MEMBRANES Canine Activity (AC*)” value was 100%.

Turning to [Lys^3 ]bPTH(1-34), at PTH receptor [5] (setting [7]), the “SAOS2 CELLS Human Bone Activity (AC)” value is reported as 100% and the “SAOS2 CELLS Human Bone Potency (AC)” value came to 20%. Also, at PTH receptor [1] (setting [7]), the “RENAL MEMBRANES Canine Potency (B)” value came to 14%. On PTH receptor [2] (setting [7]), the “UMR106-H5 CELLS Rat Bone Potency (B)” value is listed as 3.5%. In addition, in data set [6], the “% HELIX TFE (30%)” value stood at 81% and the “% HELIX TFE (0%)” value amounted to 29%. In addition, at PTH receptor [3] (setting [7]), the “UMR106-H5 CELLS Rat Bone Activity (AC*)” value amounted to 95% and the “UMR106-H5 CELLS Rat Bone Potency (AC)” value amounted to 14%. The “bioactivity in bone cell assays versus kidney” value at PTH receptor [3] (both bone cell assays) is “enhanced bioactivity”. For the same compound, the “RENAL MEMBRANES Canine Potency (AC)” value at PTH receptor [4] (setting [8]) came out at 1.5%. Besides, on PTH receptor [4] (setting [7]), the “RENAL MEMBRANES Canine Activity (AC*)” value was found to be 78%.

On to [Phe^3 ]bPTH(1-34), for which the “antagonism of PTH-stimulated adenylate cyclase” value on PTH receptor [4] is on record as “partial PTH antagonists”.

Turning to [Phe^6 ]bPTH(1-34), the “binding activity retained, of the activity of bPTH(1-34)” value on PTH receptor [1] (renal membranes) amounted to 1%; at PTH receptor [2] (osteosarcoma cells) it was 4%. Further, the “antagonism of PTH-stimulated adenylate cyclase” value at PTH receptor [4] is “inhibition”; at PTH receptor [4] (listed as [Phe^6 ]PTH(1-34)) it was “partial PTH antagonists”.

[Tyr^3 ]bPTH(1-34): the “RENAL MEMBRANES Canine Potency (B)” value on PTH receptor [1] (setting [7]) came to 2%. Further, the “UMR106-H5 CELLS Rat Bone Potency (B)” value at PTH receptor [2] (setting [7]) was found to be 0.9%. In data set [6], the “% HELIX TFE (30%)” value is on record as 99% and the “% HELIX TFE (0%)” value is reported as 34%. Further, at PTH receptor [3] (setting [7]), the “UMR106-H5 CELLS Rat Bone Activity (AC*)” value came out at 100% and the “UMR106-H5 CELLS Rat Bone Potency (AC)” value was 2.5%. For the same compound, at PTH receptor [3] (UMR-106-H5 cells), the “activity in adenylate cyclase compared with renal adenylate cyclase” value is listed as “increased activity”. In addition, the “RENAL MEMBRANES Canine Potency (AC)” value on PTH receptor [4] (setting [8]) was determined as 1.2%. In addition, the “RENAL MEMBRANES Canine Activity (AC*)” value on PTH receptor [4] (setting [7]) is on record as 28%. Moreover, at PTH receptor [4] (both the bone and kidney systems), the “agonist behaviour in the adenylate cyclase assay” value is “partial agonist activity”.
